Test results taken from patent publication US8791077B2, “Method for treating hyperuricemia employing an SGLT2 inhibitor and composition containing same” (AstraZeneca AB, priority 2008, dated 2014).

How the values were obtained:
[1] = system: Healthy Normal Volunteers; assay: Urinary glucose excretion over 24 hr in healthy normal volunteers after single doses of SGLT2 inhibitors; format: in vivo, human; conditions: healthy subjects; 5, 20, 50 or 100 mg; compared to GSK 869,682; FIG. 1
type 2 diabetic patients = system: type 2 diabetic patients
Text: C-aryl glucoside SGLT2 inhibitors are known to reduce blood glucose levels in diabetic patients, see U.S. Pat. No. 6,774,112, which is incorporated herein by reference in its entirety, but not known to increase urine volume. […] Metformin reduces plasma glucose concentration by non-renal mechanisms and is not known to induce glucosuria. […] On day 1 and day 14, the patients were examined for the levels of glucosuria and changes in urine volumes. […] Patients' serum uric acid levels were not measured in this experiment.

diabetic patients = assay: 12-week treatment of diabetic patients: urine glucose, HbA1C, urine volume, serum uric acid; format: in vivo, human; conditions: for Uric Acid (change in serum uric acid), mean ± standard deviation: 12 week treatment
patients with diabetes = conditions: 5, 25, or 100 mg, FIG. 2
Text: The levels of urine glucose of all subjects are shown in the plot and the mean urine glucose is in the darker lines.

SGLT2 relative to SGLT-1 = conditions: ratio of EC50 in SGLT1 and SGLT2 assay
Text: Selectivity for SGLT2 of a given inhibitor can be determined by comparing the EC50 values measured in the SGLT1 and SGLT2 assay. […] The hSGLT1 and hSGLT2 sequences were cloned into pIRESneo vector (Clontech, Mountain View, Calif.) for mammalian expression and were stably transfected into Chinese hamster ovary (CHO) cells. SGLT-expressing clones were selected based on resistance to G418 antibiotic (GENETICIN®, Invitrogen, Carlsbad, Calif.) and activity in the ^14C-α-methyl-D-glucopyranoside (^14C-AMG) uptake assay.
Cells expressing hSGLT1 or hSGLT2 were maintained using standard cell culture techniques. […] Sodium-dependent ^14C-AMG uptake was calculated by subtracting the counts per minute (CPM) observed under sodium-free uptake conditions from the counts observed under sodium-containing conditions. Inhibitors were assayed at various concentrations in triplicate in the presence of sodium, and the percent inhibition was calculated by comparing CPM in inhibitor-containing wells with CPM in wells containing only DMSO vehicle. Phlorizin, a known SGLT inhibitor, was evaluated in parallel in every assay. […]

CCOc1ccc(Cc2cc([C@@H]3O[C@H](CO)[C@@H](O)[C@H](O)[C@H]3O)ccc2Cl)cc1 [dapagliflozin PGS, dapagliflozin (S)-propylene glycol solvate]
Glucosuric effect (glucose excretion/day within 24 hours), loss of calories in urine [1]: significant loss of calories in the urine
Fasting serum glucose (FSG) levels (type 2 diabetic patients; two-week period): Dose-dependent reduction
Postprandial glucose levels in oral glucose tolerance tests (OGTT) (type 2 diabetic patients; two-week period): reduced postprandial glucose levels
Urine volumes (type 2 diabetic patients; two-week period): no increase in urine volumes was apparent
Urinary glucose levels within a 24-hour time period (type 2 diabetic patients; vs placebo, FIG. 3): increased
Uric Acid (change in serum uric acid), mean ± standard deviation (diabetic patients; 2.5 mg): -1.03 ± 0.81 mg/dL
Uric Acid (change in serum uric acid), mean ± standard deviation (diabetic patients; 5 mg): -1.12 ± 0.84 mg/dL
Uric Acid (change in serum uric acid), mean ± standard deviation (diabetic patients; 10 mg): -0.98 ± 0.66 mg/dL
Uric Acid (change in serum uric acid), mean ± standard deviation (diabetic patients; 20 mg): -1.13 ± 0.78 mg/dL
Uric Acid (change in serum uric acid), mean ± standard deviation (diabetic patients; 50 mg): -1.14 ± 1.15 mg/dL
OGT (diabetic patients; diabetic patients, 2.5-50 mg, after 12 weeks of treatment): improved OGT
Average of decrease in serum uric acid levels (diabetic patients; diabetic patients, all doses, after 12 weeks treatment): approximately 1 g/dL
Urine glucose excretion compared to placebo (patients with diabetes): higher levels of urine glucose excretion

CCOc1ccc(Cc2cc([C@@H]3O[C@H](CO)[C@@H](O)[C@H](O)[C@H]3O)ccc2Cl)cc1 [dapagliflozin]
Selectivity for SGLT2 relative to SGLT-1 (SGLT2 relative to SGLT-1): High selectivity for SGLT2

CN(C)C(=N)N=C(N)N [metformin, reference compound]
Uric Acid (change in serum uric acid), mean ± standard deviation (diabetic patients; metformin group): 0.18 ± 0.53 mg/dL
Reduced HbA1C levels (diabetic patients; diabetic patients, 1500 mg metformin): 0.73%
